Test results: ChEMBL document CHEMBL1144273, “Synthesis and SAR studies of 3-phenoxypropyl piperidine analogues as ORL1 (NOP) receptor agonists” (Bioorg Med Chem Lett, 2005)

Test system: Mus musculus
Assay: In vivo effective dose against mouse formalin paw after intravenous administration of the compound
Format: functional

## COc1ccc(C)c(OC(CCN2CCC(n3c(=O)[nH]c4ccccc43)CC2)C(C)C)c1 (stereo unspecified) [ORGANON]
  ED50: 1.07 µmol/kg
